Source: publication PMC9597602, “Metal Complexes as Antifungals? From a Crowd-Sourced Compound Library to the First In Vivo Experiments” (JACS Au, 2022)
Entries after “also recorded” stand apart in the source; their conditions may differ. Like-named read-outs stand apart in the source and are kept apart here.

Assays:
[1] = tested on: HEK-293 human embryonic kidney cells ATCC CRL-1573
Experimental: The cells were incubated together with the compounds for 20 h at 37 °C in 5% CO2. […] Tamoxifen (Sigma T5648) was used as internal control on each plate.

[2] = tested on: C. albicans (ATCC 90028); test: Galleria mellonella infection (log CFU reduction) assay; assay type: in vivo, Candida albicans in Galleria mellonella larvae; conditions: 1 mM, 10 μL; Pt1 19 mg/kg, Pt2 28 mg/kg, fluconazole 12 mg/kg; 24 h at 37 °C; vs 10% DMSO control
Experimental: To quantify the possible protective effect of Pt1 and Pt2 in G. mellonella challenged with C. albicans, we conducted a CFU reduction assay with these compounds. Briefly, G. mellonella larvae were inoculated with C. albicans (ATCC 90028) and incubated for 2 h at 37 °C. The larvae were then injected with 10 μL of the corresponding compound solution (1 mM) or control (same concentration and injection volume) and incubated for 24 h at 37 °C. The larvae were then anesthetized, macerated, and serially diluted onto SDA (Sabouraud dextrose agar) plates. After 48 h of incubation, the CFUs were counted.
A log CFU reduction assay was conducted for two compounds and two control groups. […] Fluconazole (1 mM) and 10% DMSO were used once again as the control groups. Fifteen G. mellonella larvae (200–250 mg) per test group were selected and inoculated with 10 μL of C. albicans at a concentration of 5 × 10^7 cells/mL and incubated on 90 mm Petri dishes in groups of five larvae for 2 h at 37 °C. Larvae were then subsequently injected with 10 μL of the corresponding test compound or control and returned to Petri dishes to incubate for 24 h at 37 °C.
Larvae were then anesthetized on ice for 5 to 10 min before being placed in individual prefilled 2 mL tubes with 3.0 mm diameter zirconium beads with 1000 μL of PBS. They were then macerated briefly using the BeadBug 6 Homogenizer (Benchmark Scientific, USA) in two 45 s intervals at 4350 rpm. After homogenization, serial dilutions of 1:100, 1:1000, and 1:10,000 were then made for each larva/tube, and 100 μL of the dilution was spread plated onto SDA plates with 50 μg/mL chloramphenicol. Plates were then incubated at 27 °C for 48 h before CFUs were counted.
A one-way ANOVA was conducted to compare the CFU counts for Pt1, Pt2, and both controls. After a significant difference was observed between the groups, a subsequent Tukey’s pairwise test was used to compare the individual test groups with each other.

[3] = tested on: Cryptococcus deuterogattii ATCC 32609 VGII; test: Antifungal MIC assay, extended panel; assay type: cell-based; conditions: extended panel, second batch; ≥80 or ≥50% inhibition
[4] = tested on: Cryptococcus deuterogattii CBS7750 VGII; Serotype B; test: Antifungal MIC assay, extended panel; assay type: cell-based; conditions: extended panel, second batch; ≥80 or ≥50% inhibition
How it was run: (§1)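 Broth microdilution in YNB medium at a final density of 2.5 × 10^3 CFU/mL, from yeast grown 3 days on YPD agar at 30 °C; incubated 35 °C for 36 h without shaking. MIC is the lowest concentration giving ≥80% growth inhibition (CLSI M27 score 0–1); n = 4–8 from replicate independent runs.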

[5] = tested on: Candida tropicalis ATCC 750; test: Antifungal MIC assay, extended panel; assay type: cell-based; conditions: extended panel, second batch; ≥80 or ≥50% inhibition
How it was run: as §1

[6] = tested on: Candida glabrata ATCC 90030 NCCLS 84; test: Antifungal MIC assay, extended panel; assay type: cell-based; conditions: extended panel, second batch; ≥80 or ≥50% inhibition
How it was run: as §1

[7] = tested on: C. albicans (ATCC 90028); test: Galleria mellonella infection (survival) assay; assay type: in vivo, Candida albicans in Galleria mellonella larvae; conditions: G. mellonella inoculated with C. albicans, 10 μL compound solution, 5 days, vs untreated control
Experimental: In an initial survival assay, G. mellonella larvae were inoculated with C. albicans (ATCC 90028). The larvae were then injected with 10 μL of the compound solution, and their survival was monitored for the next 5 days. Fluconazole and 10% DMSO injections were used as controls.
The globally available strains for C. albicans and C. neoformans, namely, ATCC 90028 and H99, respectively, were used to assess the antifungal potential of the panel of cobalt complex compounds in the G. mellonella insect model. Each strain was cultured on Sabouraud dextrose agar (SDA) for 24–48 h at 27 °C prior to inoculation. Yeast colonies were then suspended in a phosphate-buffered saline solution (PBS), and cells’ concentrations were adjusted using a Neubauer counting chamber to 5 × 10^7 cells for ATCC 90028 and 1 × 10^8 cells for H99. Compounds were prepared by dissolving in 100% dimethylsulfoxide (DMSO) to 4 or 10 mM depending on compound solubility before being further diluted with water to 0.4 or 1 mM for injection into larvae.
Each group of larvae was subsequently incubated at 37 °C for 2 h in 90 mm Petri dishes. After incubation, larvae were injected with 10 μL of the compound into the last right pro-leg and returned to Petri dishes to incubate at 37 °C for 5 days. In addition to the panel of metal compounds, fluconazole (FLC) was included as a positive control (1 and 0.4 mM) and reference antifungal. Larvae inoculated with just the fungal strains and the fungal strains with 10% DMSO were also included as comparison groups. Larvae injected concurrently with PBS instead of fungal inoculum and compounds were used as negative controls. All larvae were checked daily for survival.

[8] = tested on: Cryptococcus neoformans H99 ATCC 208821 type strain; test: Antifungal MIC assay; assay type: cell-based; conditions: for MIC Cryptococcus neoformans ATCC 208821 / MIC / MIC50 Cryptococcus neoformans ATCC 208821: extended panel; for MIC Cryptococcus neoformans ATCC 208821 / MIC: second batch, ≥80 or ≥50% inhibition; for MIC Cn: initial CO-ADD dose-response screening, ≥80% growth inhibition; for MIC: read-out: MIC* Cryptococcus neoformans ATCC 208821; for MIC50 Cryptococcus neoformans ATCC 208821: 50% inhibition, MIC score 2
How it was run: as §1

[9] = tested on: Cryptococcus deuterogattii CBS7750 VGII; Serotype B; test: Antifungal MIC assay, extended panel; assay type: cell-based; conditions: extended panel; 50% inhibition, MIC score 2
[10] = tested on: Candida tropicalis ATCC 750; test: Antifungal MIC assay, extended panel; assay type: cell-based; conditions: extended panel; 50% inhibition, MIC score 2
[11] = tested on: Candida glabrata ATCC 90030 NCCLS 84; test: Antifungal MIC assay, extended panel; assay type: cell-based; conditions: extended panel; 50% inhibition, MIC score 2
[12] = tested on: Cryptococcus deuterogattii ATCC 32609 VGII; test: Antifungal MIC assay, extended panel; assay type: cell-based; conditions: extended panel; 50% inhibition, MIC score 2
[13] = Stability by NMR / UV-vis; assay type: physicochemical; conditions: for stability in DMSO solution, NMR or UV–vis spectra: after 24 h; for stability of solid samples, NMR spectra: room temperature, protected from light, 2 years
Experimental: The ligands for these complexes (Ligand-Ag1 and Ligand-Ag2 in the SI) were originally studied for their solvatochromism and were later coordinated with silver to investigate their potential antimicrobial activity.[84] The carboxylate ion is able to coordinate to silver with monodentate, chelating, and/or bridging modes. […] The stability of complexes Ag1 and Ag2 was assessed.
One concern with Pt1 is its potential stability under biological conditions. […] Future work will be aimed toward more comprehensive examinations of the chemical and biological stability of these and related compounds, as well as investigations into their mode of action.

[14] = tested on: MRSA; design: method as in PMID 34018686; conditions: G. mellonella infected with MRSA; cited from earlier work
[15] = read-out: HEK293 CC50, ranges obtained upon retesting, new batch
[16] = read-out: HEK CC50, initial CO-ADD screening, 20 h

Row | SMILES | CC50 [1, 15] [µM] | CC50 [1, 16] [µM] | MIC Cryptococcus deuterogattii ATCC 32609 [3] [µM] | MIC Cryptococcus deuterogattii CBS7750 [4] [µM] | MIC [5] [µM] | MIC [6] [µM] | MIC Cryptococcus neoformans ATCC 208821 [8] [µM] | MIC Cn [8] | MIC50 Cryptococcus deuterogattii CBS7750 [9] [µM] | MIC Candida tropicalis ATCC 750 [5] [µM] | MIC Candida glabrata ATCC 90030 [6] [µM] | MIC50 Candida tropicalis ATCC 750 [10] [µM] | MIC50 Candida glabrata ATCC 90030 [11] [µM] | MIC50 Cryptococcus deuterogattii ATCC 32609 [12] [µM] | MIC50 Cryptococcus neoformans ATCC 208821 [8] [µM] | HEK CC50 ([1]; initial CO-ADD screening, 20 h) [µg/mL] | also measured
1 | C1=CCCC=CCC1.[I][Pt][I] [Pt2] | > 100 | > 20 | 6.25 to 12.5 | ≤0.78 to 3.13 | 50 | 50 | 1.56 to 3.13 | 1.25 µM |  |  |  |  |  |  |  |  | reduction in CFUs [2]: CFUs comparable to the DMSO control; larva survival [7]: significant larva survival; also recorded: showed some efficacy
2 | Cc1ccc2ccc3ccc(C)nc3c2n1.Cc1ccc2ccc3ccc(C)nc3c2n1.O=C([O][Eu]([O]C(=O)c1ccccc1F)[O]C(=O)c1ccccc1F)c1ccccc1F [Eu1] | > 200 | > 20 |  | 0.024 to 0.098 |  |  |  |  | 0.024 to 0.098 | ≤0.006 to 0.049 | 0.024 to 0.098 | ≤0.006 to 0.049 | 0.012 to 0.049 | 0.024 | ≤ 0.006 |  | cytotoxicity: none up to stated concentration ([1]; retest): > 200 µM; MIC [3]: 0.024 µM; MIC [8]: ≤0.006 µM
3 | C1=CCCC=CCC1.[Cl][Pt][Cl] [Pt1] | > 100 | > 20 | 3.125 to 6.25 | 1.56 to 3.13 | 25 | 25 | 1.56 to 3.13 | 2.5 µM |  |  |  |  |  |  |  |  | stability in DMSO, 1H NMR spectrum ([13]; 7 days at room temperature): no changes of the ^1H NMR spectrum; reduction in bacterial load [14]: did not elicit a significant reduction in bacterial load; reduction in CFUs [2]: 0.7 log10; larva survival [7]: significant larva survival; also recorded: showed some efficacy
4 | COc1ccc(/C=C/C2=NN(c3ccc(C(=O)[O][Ag])cc3)C(c3ccc(OC)c(OC)c3)C2)cc1OC.COc1ccc(/C=C/C2=NN(c3ccc(C(=O)[O][Ag])cc3)C(c3ccc(OC)c(OC)c3)C2)cc1OC (racemic) [Ag1, (Ε)-1-(4-Carboxyphenyl)-5-(3,4-dimethoxyphenyl)-3-(3,4-dimethoxystyryl)-2-pyrazoline silver(I) complex] | 3 to 4 |  | 0.006 to 0.024 |  |  | ≤0.006 |  | ≤0.25 µg/mL | ≤ 0.006 | ≤0.006 to 0.012 |  | ≤ 0.006 | ≤ 0.006 | ≤0.006 to 0.024 | ≤ 0.006 | >32 | stability in DMSO solution, NMR or UV–vis spectra [13]: no changes; stability of solid samples, NMR spectra [13]: identical NMR spectra; MIC [4]: 0.006 µM; MIC [8]: ≤0.006 µM
5 | CC(=NN=C(N)[S-])C(C)=NN=C(N)[S-].O=[N+]([O-])[O-].[Co+3].c1c[nH]cn1.c1c[nH]cn1 [Co1] | > 100 |  | 0.78 to 1.56 |  | 0.39 | 100 | 0.39 to 0.78 | 0.5 µg/mL |  |  |  |  |  |  |  | >32 | MIC [4]: 1.56 µM
6 | O=C([O][Ag])c1ccc(N2N=C(/C=C/C=C/c3ccccc3)CC2/C=C/c2ccccc2)cc1.O=C([O][Ag])c1ccc(N2N=C(/C=C/C=C/c3ccccc3)CC2/C=C/c2ccccc2)cc1 (racemic) [Ag2, 1-(4-Carboxyphenyl)-3-{(1E,3E)-4-phenylbuta-1,3-dien-1-yl}-5-{(E)-styryl}-2-pyrazoline silver(I) complex] | 6 to 7 |  | 0.006 to 0.098 | 0.006 to 0.098 |  |  | ≤0.006 to 0.098 | ≤0.25 µg/mL | ≤0.006 to 0.049 | ≤0.006 to 0.049 | 0.006 to 0.195 | ≤0.006 to 0.049 | 0.006 to 0.195 | ≤0.006 to 0.098 | ≤0.006 to 0.098 | >32 | stability in DMSO solution, NMR or UV–vis spectra [13]: no changes; stability of solid samples, NMR spectra [13]: identical NMR spectra
7 | CC(C)C([O][Pt][Cl])C1=CCCC=CCC1 (stereo not drawn) [Pt4] | > 100 | > 20 | 3.12 to 6.25 | ≤0.78 to 1.56 |  |  | ≤0.78 to 1.56 | 1.25 µM |  | 12.5 to 25 | 12.5 to 25 |  |  |  |  |  | 
